Assay: clinical
Conditions: human, plasma

AUC (100 mg): 3400 ng·h/mL
AUC (200 mg): 6800 ng·h/mL
SMILES: Cc1ccc(-c2cc(C(F)(F)F)nn2-c2ccc(S(N)(=O)=O)cc2)cc1 [celecoxib, Celecoxib]
